Values after ≈ are worked out from the molar mass of the structure shown. Like-named read-outs stand apart in the source and are kept apart here.
Experiments:
[1] = test system: Staphylococcus aureus X1.1; test: MIC, standard agar-dilution assay, Staphylococcus aureus X1.1; format: cell-based
[2] = test system: Staphylococcus aureus V41; test: MIC, standard agar-dilution assay, Staphylococcus aureus V41; format: cell-based
[3] = test system: Staphylococcus aureus X400; test: MIC, standard agar-dilution assay, Staphylococcus aureus X400; format: cell-based
[4] = test system: Staphylococcus aureus S13E; test: MIC, standard agar-dilution assay, Staphylococcus aureus S13E; format: cell-based
[5] = test system: Staphylococcus epidermidis EPI1; test: MIC, standard agar-dilution assay, Staphylococcus epidermidis EPI1; format: cell-based
[6] = test system: Staphylococcus epidermidis EPI2; test: MIC, standard agar-dilution assay, Staphylococcus epidermidis EPI2; format: cell-based; conditions: Staphylococcus epidermidis EPI2, agar dilution
[7] = test system: Streptococcus pyogenes C203; test: MIC, standard agar-dilution assay, Streptococcus pyogenes C203; format: cell-based
[8] = test system: Streptococcus pneumoniae Park I; test: microbe, parasite or virus in culture; format: cell-based
[9] = test system: Streptococcus Group D X66; test: MIC, standard agar-dilution assay, Streptococcus Group D X66; format: cell-based
Streptococcus Group 9960 = test: MIC, standard agar-dilution assay, Streptococcus Group 9960; format: cell-based; conditions: Streptococcus Group 9960, agar dilution
[10] = test system: Haemophilus influenzae R252; test: MIC, standard agar-dilution assay, Haemophilus influenzae R252; format: cell-based
Staphylococcus aureus = test: MIC, broth-dilution microtiter test, Staphylococcus aureus; format: cell-based; conditions: broth-dilution microtiter
Text: (§1) The MIC's in Table X were obtained using conventional broth-dilution microtiter tests.

Streptococcus bovis 80 = test: MIC, broth-dilution microtiter test, Streptococcus bovis 80; format: cell-based
Text: as §1

[11] = test system: Pasteurella multocida 17E; test: MIC, broth-dilution microtiter test, Pasteurella multocida 17E; format: cell-based
Text: as §1

[12] = test system: Pasteurella multocida 60A; test: MIC, broth-dilution microtiter test, Pasteurella multocida 60A; format: cell-based
Text: as §1

[13] = test system: Pasteurella hemolytica 22C; test: MIC, broth-dilution microtiter test, Pasteurella hemolytica 22C; format: cell-based; conditions: Pasteurella hemolytica 22C, broth-dilution microtiter
Text: as §1

Mycoplasma gallisepticum = test: MIC, broth-dilution microtiter test, Mycoplasma gallisepticum; format: cell-based; conditions: Mycoplasma gallisepticum, broth-dilution microtiter
Text: as §1

Mycoplasma synoviae = test: MIC, broth-dilution microtiter test, Mycoplasma synoviae; format: cell-based
Text: as §1

Mycoplasma hyorhinis = test: MIC, broth-dilution microtiter test, Mycoplasma hyorhinis; format: cell-based; conditions: Mycoplasma hyorhinis, broth-dilution microtiter
Text: as §1

Mycoplasma hyopneumoniae = test: MIC, broth-dilution microtiter test, Mycoplasma hyopneumoniae; format: cell-based
Text: as §1

[14] = test system: Streptococcus pyogenes C203; test: In vivo protection of mice experimentally infected with S. pyogenes C203; conditions: mice, doses given 1 and 4 hours post-infection; for ED50: Streptococcus pyogenes
Protocol: The C-20 modified derivatives of this invention have shown in vivo antimicrobial activity against experimentally-induced infections in laboratory animals. When two doses of test compound were administered to mice experimentally infected with S. pyogenes C203, the activity observed was measured as an ED50 value [effective dose in mg/kg to protect 50% of the test animals: see Warren Wick, et al., J. Bacteriol. 81, 233-235 (1961)].

Pasteurella multocida = test: Oral (gavage) treatment of Pasteurella multocida-infected chicks; format: in vivo, one-day-old chicks
Protocol: Many of the C-20 modified derivatives of this invention have also shown in vivo antibacterial activity against infections induced by gram-negative bacteria. Tables XII and XIII summarize the results of tests in which illustrative compounds were evaluated against Pasteurella infection in one-day-old chicks. The compounds were administered parenterally or orally after challenge of the chicks with Pasteurella multocida (0.1 ml of a 10^-4 dilution of a twenty-hour tryptose broth culture of an avian P. multocida given subcutaneously). In these tests, unless indicated otherwise, all non-medicated infected chicks died within 24 hours of Pasteurella challenge. In the tests summarized in Table XII the compounds were administered by subcutaneous injection at a dosage of 30 mg/kg, 1 and 4 hours post-challenge of the chicks with P. multocida. In the test summarized in Table XIII the compounds were administered by gavage at 1 and 5 hours post-challenge of the chicks with P. multocida.

[15] = test system: Haemophilus influenzae Holt; test: MIC, standard agar-dilution assay, Haemophilus influenzae Holt; format: cell-based; conditions: Haemophilus influenzae Holt; ampicillin-sensitive strain; agar dilution
[16] = Staphylococcus aureus X1.1, agar dilution
[17] = Staphylococcus aureus V41, penicillin-resistant strain, agar dilution
[18] = Staphylococcus aureus X400, methicillin-resistant strain, agar dilution
[19] = Staphylococcus aureus S13E, agar dilution
[20] = Staphylococcus epidermidis EPI1, agar dilution
[21] = Streptococcus pyogenes C203, agar dilution
[22] = Streptococcus pneumoniae Park I, agar dilution
[23] = Streptococcus Group D X66, agar dilution
[24] = Haemophilus influenzae R252, ampicillin-resistant strain, agar dilution
[25] = Streptococcus bovis 80, broth-dilution microtiter
[26] = Pasteurella multocida 17E, bovine isolate, broth-dilution microtiter
[27] = Pasteurella multocida 60A, avian isolate, broth-dilution microtiter
[28] = Mycoplasma synoviae, broth-dilution microtiter
[29] = Mycoplasma hyopneumoniae, broth-dilution microtiter

For `CCC1OC(=O)CC(O)C(C)C(OC2OC(C)C(O)C(N(C)C)C2O)C(CCOc2ccc(OC)cc2)CC(C)C(=O)C=CC(C)=CC1COC1OC(C)C(O)C(OC)C1OC` (stereo not shown) [Compound 35, 20-DH-20-O-(p-Methoxyphenyl)desmycosin], the MIC ([1]; Staphylococcus aureus, X1.1) was 0.25 µg/mL (≈ 0.284 µM), the MIC ([2]; Staphylococcus aureus, V41) was 0.25 µg/mL (≈ 0.284 µM) and the MIC ([3]; Staphylococcus aureus, X400) was 0.25 µg/mL (≈ 0.284 µM). For the same compound, the MIC ([4]; Staphylococcus aureus, S13E) was 0.25 µg/mL (≈ 0.284 µM), the MIC ([5]; Staphylococcus epidermidis, EPI1) was 0.25 µg/mL (≈ 0.284 µM) and the MIC ([6]; read-out: MIC) was 0.12 µg/mL (≈ 0.136 µM). It also gave an MIC ([7]; Streptococcus pyogenes, C203) of 1 µg/mL (≈ 1.14 µM), an MIC ([8]; Streptococcus pneumoniae) of 1 µg/mL (≈ 1.14 µM) and an MIC [9] of 4 µg/mL (≈ 4.55 µM). It also gave an MIC (Streptococcus Group 9960; GROUP9960, read-out: MIC) of 8 µg/mL (≈ 9.09 µM), an MIC ([10]; Haemophilus influenzae, R252) of 16 µg/mL (≈ 18.2 µM) and an MIC (Staphylococcus aureus; read-out: MIC) of 0.39 µg/mL (≈ 0.443 µM). For the same compound, the MIC (Streptococcus bovis 80; Streptococcus equinus, 80) was 1.56 µg/mL (≈ 1.77 µM), the MIC ([11]; Pasteurella multocida, 17E) was 12.5 µg/mL (≈ 14.2 µM) and the MIC ([12]; Pasteurella multocida, 60A) was 12.5 µg/mL (≈ 14.2 µM). For the same compound, the MIC ([13]; read-out: MIC) was 25 µg/mL (≈ 28.4 µM), the MIC (Mycoplasma gallisepticum; Mycoplasmoides gallisepticum, read-out: MIC) was 0.39 µg/mL (≈ 0.443 µM) and the MIC (Mycoplasma synoviae; Mycoplasmopsis synoviae) was 0.78 µg/mL (≈ 0.886 µM). The MIC (Mycoplasma hyorhinis; read-out: MIC) was > 50 µg/mL, the MIC (Mycoplasma hyopneumoniae; Mesomycoplasma hyopneumoniae) was 6.25 µg/mL (≈ 7.1 µM) and the ED50 ([14]; C203, sc, subcutaneous, read-out: ED50, Subcutaneous) was 1.6 mg/kg. The ED50 ([14]; C203, oral, read-out: ED50, Oral) was 11 mg/kg, the “Number of Deaths/Number tested” value (Pasteurella multocida; 1.5 g/gal equivalent) was 1/10 and the “Number of Deaths/Number tested” value (Pasteurella multocida; 2.0 g/gal equivalent) was 4/10.
For `CCC1OC(=O)CC(O)C(C)C(OC2OC(C)C(O)C(N(C)C)C2O)C(CCOc2ccc(Oc3ccccc3)cc2)CC(C)C(=O)C=CC(C)=CC1COC1OC(C)C(O)C(OC)C1OC` (stereo not shown) [Compound 47, 20-DH-20-O-(p-Phenoxyphenyl)desmycosin], the MIC [1, 16] was 0.5 µg/mL (≈ 0.531 µM), the MIC [2, 17] was 0.5 µg/mL (≈ 0.531 µM) and the MIC [3, 18] was 0.5 µg/mL (≈ 0.531 µM). It also gave an MIC [4, 19] of 0.25 µg/mL (≈ 0.265 µM), an MIC [5, 20] of 0.5 µg/mL (≈ 0.531 µM) and an MIC [6] of 0.25 µg/mL (≈ 0.265 µM). It also gave an MIC [7, 21] of 0.25 µg/mL (≈ 0.265 µM), an MIC [8, 22] of 0.25 µg/mL (≈ 0.265 µM) and an MIC [9, 23] of 0.5 µg/mL (≈ 0.531 µM). For the same compound, the MIC (Streptococcus Group 9960) was 1 µg/mL (≈ 1.06 µM), the MIC [15] was 16 µg/mL (≈ 17 µM) and the MIC [10, 24] was 16 µg/mL (≈ 17 µM). It also gave an MIC (Staphylococcus aureus) of 0.78 µg/mL (≈ 0.828 µM), an MIC (Streptococcus bovis 80; [25]) of 0.09 µg/mL (≈ 0.0955 µM) and an MIC [11, 26] of 25 µg/mL (≈ 26.5 µM). The MIC [12, 27] was 25 µg/mL (≈ 26.5 µM), the MIC [13] was 25 µg/mL (≈ 26.5 µM) and the MIC (Mycoplasma gallisepticum) was < 0.05 µg/mL. The MIC (Mycoplasma synoviae; [28]) was 0.09 µg/mL (≈ 0.0955 µM), the MIC (Mycoplasma hyorhinis) was 6.25 µg/mL (≈ 6.63 µM) and the MIC (Mycoplasma hyopneumoniae; [29]) was 3.12 µg/mL (≈ 3.31 µM). For the same compound, the “ED50, Oral” value ([14]; oral) was 29 mg/kg × 2 and the “ED50, Subcutaneous” value ([14]; subcutaneous) was > 10 mg/kg × 2.
Work on `CCC1OC(=O)CC(O)C(C)C(OC2OC(C)C(OC(C)=O)C(N(C)C)C2OC(C)=O)C(CCOc2ccccc2)CC(C)C(=O)C=CC(C)=CC1COC1OC(C)C(O)C(OC)C1OC` (stereo not shown) [Compound 68, 20-DH-20-O-Phenyl-2',4'-di-O-acetyldesmycosin] yielded an MIC [1, 16] of 0.5 µg/mL (≈ 0.535 µM), an MIC [2, 17] of 0.5 µg/mL (≈ 0.535 µM) and an MIC [3, 18] of 0.5 µg/mL (≈ 0.535 µM). The MIC [4, 19] was 0.5 µg/mL (≈ 0.535 µM), the MIC [5, 20] was 0.5 µg/mL (≈ 0.535 µM) and the MIC [6] was 0.12 µg/mL (≈ 0.128 µM). It also gave an MIC [7, 21] of 0.5 µg/mL (≈ 0.535 µM), an MIC [8, 22] of 0.5 µg/mL (≈ 0.535 µM) and an MIC [9, 23] of 4 µg/mL (≈ 4.28 µM). For the same compound, the MIC (Streptococcus Group 9960) was 8 µg/mL (≈ 8.56 µM), the MIC [15] was 32 µg/mL (≈ 34.3 µM) and the MIC [10, 24] was 16 µg/mL (≈ 17.1 µM). It also gave an MIC (Staphylococcus aureus) of 0.39 µg/mL (≈ 0.418 µM), an MIC (Streptococcus bovis 80; [25]) of 6.25 µg/mL (≈ 6.69 µM) and an MIC [11, 26] of 25 µg/mL (≈ 26.8 µM). It also gave an MIC [12, 27] of 25 µg/mL (≈ 26.8 µM), an MIC [13] of 25 µg/mL (≈ 26.8 µM) and an MIC (Mycoplasma gallisepticum) of 0.39 µg/mL (≈ 0.418 µM). For the same compound, the MIC (Mycoplasma synoviae; [28]) was 3.12 µg/mL (≈ 3.34 µM), the MIC (Mycoplasma hyorhinis) was “-- (Not active at 50 mcg/ml, the highest level tested)” and the MIC (Mycoplasma hyopneumoniae; [29]) was 12.5 µg/mL (≈ 13.4 µM). For the same compound, the “ED50, Oral” value ([14]; oral) was 16 mg/kg × 2 and the “ED50, Subcutaneous” value ([14]; subcutaneous) was 2.9 mg/kg × 2.
